What all share (assay): NCI anticancer screen, dose series, 48 h
Experiment [1] has as its system Malme-3M.
The subject of experiment [2] is RXF 393.
The subject of experiment [3] is SK-MEL-5.
Experiment [4] relates to KM-20L2.
For experiment [5], the system named is OVCAR-3.
Experiment [6] relates to HCT-116.
The subject of experiment [7] is PC-3.
Experiment [8] concerns KM12.
Experiment [9] deals with MOLT-4.
For experiment [10], the system named is HCT-15.
In experiment [11] the test system is BT-549.
Experiment [12] relates to UACC-62.
The subject of experiment [13] is MDA-MB-231.
The subject of experiment [14] is HOP-62.
For experiment [15], the system named is CAKI-1.
In experiment [16] the test system is ACHN.
In experiment [17] the test system is SK-MEL-2.
Experiment [18] concerns LOX IMVI.
The subject of experiment [19] is COLO 205.
The test system of experiment [20] is SNB-19.

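Test compounds were applied to cells in 96-well plates for 48 hours at 5 doses. GI50 is the concentration that inhibits growth by half.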 The source made the active and inactive calls. No stated cut-off is given here; in the data, active = GI50 up to about 1.1 µM and inactive = higher.

As for `O=C(O)CNCc1c2ccccc2nc2ccccc12`, the GI50 in experiment [1] is > 74.5 µM (inactive); in experiment [2], 32.4 µM (inactive); in experiment [3], 25.7 µM (inactive); in experiment [4], 29.3 µM (inactive); in experiment [5], 38.6 µM (inactive); in experiment [6], 12.1 µM (inactive). The GI50 is 27.2 µM (inactive) in [7]; 32.3 µM (inactive) in [8]; 6.27 µM (inactive) in experiment [9]; 34.4 µM in experiment [10]; 33.4 µM (inactive) in experiment [11]; 44.7 µM (inactive) in experiment [12]. Moreover, the GI50 in [13] was 43 µM (inactive); in [14] it was 43.9 µM (inactive); in [15], 35.7 µM (inactive); in [16] it was 31.1 µM (inactive); in experiment [17] it was 50.8 µM (inactive); in [18] it was 28.3 µM (inactive). The GI50 in [19] was 41 µM (inactive); in experiment [20] it was 74 µM (inactive).

As to `Cc1ccc(S(=O)(=O)SCc2ccccc2)cc1`, the GI50 is 24.4 µM (inactive) in experiment [1]; 28.4 µM (inactive) in experiment [2]; 25.6 µM (inactive) in experiment [3]; 22.9 µM (inactive) in experiment [4]; 20.8 µM (inactive) in [5]; 7.6 µM (inactive) in experiment [6]. Besides, the GI50 in experiment [8] was 25.7 µM (inactive); in [9] it was 2.32 µM (inactive); in experiment [10], 14.1 µM; in experiment [12] it was 29.4 µM (inactive); in experiment [14] it was 49.7 µM (inactive); in experiment [15], 34.9 µM (inactive). The GI50 in [16] is 32.8 µM (inactive); in experiment [17] it was 27 µM (inactive); in [18], 18.9 µM (inactive); in [19] it was 14.3 µM (inactive); in experiment [20], 29.7 µM (inactive).
